{"source": "ChEMBL document CHEMBL5723584", "about": "(2023)", "key": {"Aurora kinase A": {"molecular_target": "Aurora kinase A (Homo sapiens, UniProt O14965)", "test": "Promega NanoBRET (AURKA)"}, "[1]": {"molecular_target": "Cyclin-G-associated kinase (Homo sapiens, UniProt O14976)", "test": "Promega NanoBRET (GAK)"}, "[2]": {"molecular_target": "Mitogen-activated protein kinase kinase kinase 5 (Homo sapiens) (UniProt Q99683)", "test": "activity of ASK1(h) at 1.0 µM in the Eurofins Kinase panel", "conditions": "Compound concentration 1.0 uM; call rule not given here"}, "[3]": {"molecular_target": "Serine/threonine-protein kinase B-raf (Homo sapiens) (UniProt P15056)", "test": "activity of B-Raf(h) at 1.0 µM in the Eurofins Kinase panel", "conditions": "Compound concentration 1.0 uM"}, "[4]": {"molecular_target": "CDK3/Cyclin E (Homo sapiens) (UniProt P24864+Q00526)", "test": "activity of CDK3/cyclinE(h) at 1.0 µM in the Eurofins Kinase panel", "format": "protein-complex assay", "conditions": "Compound concentration 1.0 uM"}, "[5]": {"molecular_target": "Cyclin-dependent kinase-like 4 (Homo sapiens) (UniProt Q5MAI5)", "test": "activity of CDKL4(h) at 1.0 µM in the Eurofins Kinase panel", "conditions": "Compound concentration 1.0 uM"}, "[6]": {"molecular_target": "Serine/threonine-protein kinase Chk2 (Homo sapiens) (UniProt O96017)", "test": "activity of CHK2(h) at 1.0 µM in the Eurofins Kinase panel", "conditions": "Compound concentration 1.0 uM"}, "[7]": {"molecular_target": "Casein kinase I isoform delta (Homo sapiens) (UniProt P48730)", "sequence (P48730 whole entry, looked up, canonical isoform)": "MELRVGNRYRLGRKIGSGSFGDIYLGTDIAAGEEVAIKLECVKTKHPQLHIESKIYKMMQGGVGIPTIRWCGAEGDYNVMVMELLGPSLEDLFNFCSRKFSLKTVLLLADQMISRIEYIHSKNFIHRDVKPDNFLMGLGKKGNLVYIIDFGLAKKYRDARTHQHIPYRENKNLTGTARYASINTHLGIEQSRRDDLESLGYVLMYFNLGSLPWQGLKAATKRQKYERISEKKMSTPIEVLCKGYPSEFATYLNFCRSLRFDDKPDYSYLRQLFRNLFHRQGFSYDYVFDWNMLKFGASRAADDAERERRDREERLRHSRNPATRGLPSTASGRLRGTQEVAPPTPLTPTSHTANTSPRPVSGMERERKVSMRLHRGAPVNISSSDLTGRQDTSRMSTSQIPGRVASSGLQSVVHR", "test": "activity of CK1delta(h) at 1.0 µM in the Eurofins Kinase panel", "conditions": "Compound concentration 1.0 uM"}, "[8]": {"molecular_target": "Ephrin type-A receptor 5 (Homo sapiens) (UniProt P54756)", "sequence (P54756 whole entry)": "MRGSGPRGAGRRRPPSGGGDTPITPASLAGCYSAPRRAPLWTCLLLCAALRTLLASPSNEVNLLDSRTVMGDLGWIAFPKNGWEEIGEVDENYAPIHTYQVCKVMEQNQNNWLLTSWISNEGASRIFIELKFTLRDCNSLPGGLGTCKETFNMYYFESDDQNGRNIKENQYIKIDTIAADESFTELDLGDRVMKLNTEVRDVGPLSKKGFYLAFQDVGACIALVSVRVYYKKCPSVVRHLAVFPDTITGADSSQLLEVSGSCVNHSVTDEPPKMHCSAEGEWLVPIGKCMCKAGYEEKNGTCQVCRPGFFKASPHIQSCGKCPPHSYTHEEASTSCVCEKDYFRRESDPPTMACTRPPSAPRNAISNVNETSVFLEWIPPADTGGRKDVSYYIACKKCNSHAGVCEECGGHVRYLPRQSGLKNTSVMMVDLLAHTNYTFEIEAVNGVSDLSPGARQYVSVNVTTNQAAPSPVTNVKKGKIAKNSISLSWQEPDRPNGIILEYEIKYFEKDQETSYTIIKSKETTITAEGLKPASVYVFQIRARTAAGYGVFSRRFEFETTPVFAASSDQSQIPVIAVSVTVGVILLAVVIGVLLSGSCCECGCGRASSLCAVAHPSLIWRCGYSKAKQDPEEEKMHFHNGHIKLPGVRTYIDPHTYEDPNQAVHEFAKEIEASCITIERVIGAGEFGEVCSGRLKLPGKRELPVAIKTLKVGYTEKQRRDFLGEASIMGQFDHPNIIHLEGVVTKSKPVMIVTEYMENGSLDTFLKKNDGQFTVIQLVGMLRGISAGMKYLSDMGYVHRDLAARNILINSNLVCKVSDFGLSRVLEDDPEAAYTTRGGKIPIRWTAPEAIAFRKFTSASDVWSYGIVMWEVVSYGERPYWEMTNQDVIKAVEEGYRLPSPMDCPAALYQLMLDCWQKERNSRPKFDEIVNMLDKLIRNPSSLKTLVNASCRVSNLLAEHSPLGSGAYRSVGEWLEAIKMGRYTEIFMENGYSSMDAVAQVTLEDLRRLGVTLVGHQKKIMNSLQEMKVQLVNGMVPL", "test": "activity of EphA5(h) at 1.0 µM in the Eurofins Kinase panel", "conditions": "Compound concentration 1.0 uM"}, "[9]": {"molecular_target": "Ephrin type-B receptor 2 (Homo sapiens) (UniProt P29323)", "test": "activity of EphB2(h) at 1.0 µM in the Eurofins Kinase panel", "conditions": "Compound concentration 1.0 uM"}, "[10]": {"molecular_target": "Ephrin type-B receptor 4 (Homo sapiens) (UniProt P54760)", "test": "activity of EphB4(h) at 1.0 µM in the Eurofins Kinase panel", "conditions": "Compound concentration 1.0 uM"}, "[11]": {"molecular_target": "Fibroblast growth factor receptor 1 (Homo sapiens) (UniProt P11362)", "test": "activity of FGFR1(h) at 1.0 µM in the Eurofins Kinase panel", "conditions": "Compound concentration 1.0 uM"}, "[12]": {"molecular_target": "Fibroblast growth factor receptor 3 (Homo sapiens) (UniProt P22607)", "test": "activity of FGFR3(h) at 1.0 µM in the Eurofins Kinase panel", "conditions": "Compound concentration 1.0 uM"}, "[13]": {"molecular_target": "Fibroblast growth factor receptor 4 (Homo sapiens) (UniProt P22455)", "test": "activity of FGFR4(h) at 1.0 µM in the Eurofins Kinase panel", "conditions": "Compound concentration 1.0 uM"}, "[14]": {"molecular_target": "G protein-coupled receptor kinase 3 (Homo sapiens) (UniProt P35626)", "test": "activity of GRK3(h) at 1.0 µM in the Eurofins Kinase panel", "conditions": "Compound concentration 1.0 uM"}, "[15]": {"molecular_target": "G protein-coupled receptor kinase 5 (Homo sapiens) (UniProt P34947)", "sequence (P34947 whole entry, looked up)": "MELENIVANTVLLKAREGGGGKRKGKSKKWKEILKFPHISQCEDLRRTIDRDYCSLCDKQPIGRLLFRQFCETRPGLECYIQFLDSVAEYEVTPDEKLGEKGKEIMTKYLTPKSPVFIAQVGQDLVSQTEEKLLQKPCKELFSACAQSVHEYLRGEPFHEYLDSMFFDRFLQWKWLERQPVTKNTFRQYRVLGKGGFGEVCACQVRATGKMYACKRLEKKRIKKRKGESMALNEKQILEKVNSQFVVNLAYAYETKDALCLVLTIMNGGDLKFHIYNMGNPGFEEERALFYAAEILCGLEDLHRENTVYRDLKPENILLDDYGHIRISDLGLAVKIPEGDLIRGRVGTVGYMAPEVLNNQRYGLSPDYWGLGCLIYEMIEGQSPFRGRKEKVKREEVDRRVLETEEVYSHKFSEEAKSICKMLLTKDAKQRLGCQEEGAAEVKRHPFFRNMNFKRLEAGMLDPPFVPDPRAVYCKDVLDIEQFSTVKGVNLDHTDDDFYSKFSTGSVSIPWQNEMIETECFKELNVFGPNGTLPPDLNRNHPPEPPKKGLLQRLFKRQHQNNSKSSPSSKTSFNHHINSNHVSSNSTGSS", "test": "activity of GRK5(h) at 1.0 µM in the Eurofins Kinase panel", "conditions": "Compound concentration 1.0 uM"}, "[16]": {"molecular_target": "Mitogen-activated protein kinase kinase kinase kinase 1 (Homo sapiens) (UniProt Q92918)", "test": "activity of HPK1(h) at 1.0 µM in the Eurofins Kinase panel", "conditions": "Compound concentration 1.0 uM"}, "[17]": {"molecular_target": "Interleukin-1 receptor-associated kinase 4 (Homo sapiens) (UniProt Q9NWZ3)", "test": "activity of IRAK4(h) at 1.0 µM in the Eurofins Kinase panel", "conditions": "Compound concentration 1.0 uM"}, "[18]": {"molecular_target": "Serine/threonine-protein kinase 4 (Homo sapiens) (UniProt Q13043)", "test": "activity of MST1(h) at 1.0 µM in the Eurofins Kinase panel", "conditions": "Compound concentration 1.0 uM"}, "[19]": {"molecular_target": "Serine/threonine-protein kinase 3 (Homo sapiens) (UniProt Q13188)", "test": "activity of MST2(h) at 1.0 µM in the Eurofins Kinase panel", "conditions": "Compound concentration 1.0 uM"}, "[20]": {"molecular_target": "Myosin light chain kinase 2, skeletal/cardiac muscle (Homo sapiens) (UniProt Q9H1R3)", "test": "activity of MYLK2(h) at 1.0 µM in the Eurofins Kinase panel", "conditions": "Compound concentration 1.0 uM"}, "[21]": {"molecular_target": "Ribosomal protein S6 kinase beta-1 (Homo sapiens) (UniProt P23443)", "test": "activity of p70S6K(h) at 1.0 µM in the Eurofins Kinase panel", "conditions": "Compound concentration 1.0 uM"}, "[22]": {"molecular_target": "Serine/threonine-protein kinase PAK 3 (Homo sapiens) (UniProt O75914)", "test": "activity of PAK3(h) at 1.0 µM in the Eurofins Kinase panel", "conditions": "Compound concentration 1.0 uM"}, "[23]": {"molecular_target": "Serine/threonine-protein kinase MARK2 (Homo sapiens) (UniProt Q7KZI7)", "sequence (Q7KZI7 whole entry)": "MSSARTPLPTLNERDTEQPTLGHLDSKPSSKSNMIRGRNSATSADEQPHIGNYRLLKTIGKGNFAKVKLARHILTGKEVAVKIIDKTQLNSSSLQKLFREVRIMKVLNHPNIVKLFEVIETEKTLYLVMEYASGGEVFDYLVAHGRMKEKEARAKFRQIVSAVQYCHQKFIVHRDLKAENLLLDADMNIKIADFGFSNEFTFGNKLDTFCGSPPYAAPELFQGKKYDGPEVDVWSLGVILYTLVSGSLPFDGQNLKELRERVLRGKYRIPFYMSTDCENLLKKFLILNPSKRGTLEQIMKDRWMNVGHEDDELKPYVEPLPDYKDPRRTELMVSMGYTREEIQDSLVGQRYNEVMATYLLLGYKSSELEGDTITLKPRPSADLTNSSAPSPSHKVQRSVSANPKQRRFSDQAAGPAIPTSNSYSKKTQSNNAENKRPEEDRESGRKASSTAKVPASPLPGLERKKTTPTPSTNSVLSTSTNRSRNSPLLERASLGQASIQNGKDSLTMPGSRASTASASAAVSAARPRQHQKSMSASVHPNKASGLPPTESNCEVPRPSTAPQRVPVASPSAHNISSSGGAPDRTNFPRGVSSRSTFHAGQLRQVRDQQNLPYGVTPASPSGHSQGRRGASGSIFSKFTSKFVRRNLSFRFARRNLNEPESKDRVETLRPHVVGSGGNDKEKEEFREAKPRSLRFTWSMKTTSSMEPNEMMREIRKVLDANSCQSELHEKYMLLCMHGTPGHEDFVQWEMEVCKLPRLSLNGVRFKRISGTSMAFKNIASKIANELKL", "test": "activity of PAR-1Balpha(h) at 1.0 µM in the Eurofins Kinase panel", "conditions": "Compound concentration 1.0 uM"}, "[24]": {"molecular_target": "[Pyruvate dehydrogenase (acetyl-transferring)] kinase isozyme 2, mitochondrial (Homo sapiens) (UniProt Q15119)", "test": "activity of PDHK2(h) at 1.0 µM in the Eurofins Kinase panel", "conditions": "Compound concentration 1.0 uM"}, "[25]": {"molecular_target": "PI3-kinase p110-alpha/p85-alpha (Homo sapiens) (UniProt P27986+P42336)", "test": "activity of PI3 Kinase (p110alpha/p85alpha)(h) at 1.0 µM in the Eurofins Kinase panel", "format": "protein-complex assay", "conditions": "Compound concentration 1.0 uM"}, "[26]": {"molecular_target": "Phosphatidylinositol 4-phosphate 3-kinase C2 domain-containing subunit alpha (Homo sapiens) (UniProt O00443)", "test": "activity of PI3KC2alpha(h) at 1.0 µM in the Eurofins Kinase panel", "conditions": "Compound concentration 1.0 uM"}, "[27]": {"molecular_target": "RAC-beta serine/threonine-protein kinase (Homo sapiens) (UniProt P31751)", "test": "activity of PKBbeta(h) at 1.0 µM in the Eurofins Kinase panel", "conditions": "Compound concentration 1.0 uM"}, "[28]": {"molecular_target": "Protein kinase C eta type (Homo sapiens) (UniProt P24723)", "test": "activity of PKCeta(h) at 1.0 µM in the Eurofins Kinase panel", "conditions": "Compound concentration 1.0 uM"}, "[29]": {"molecular_target": "Serine/threonine-protein kinase PRP4 homolog (Homo sapiens) (UniProt Q13523)", "sequence (Q13523 whole entry)": "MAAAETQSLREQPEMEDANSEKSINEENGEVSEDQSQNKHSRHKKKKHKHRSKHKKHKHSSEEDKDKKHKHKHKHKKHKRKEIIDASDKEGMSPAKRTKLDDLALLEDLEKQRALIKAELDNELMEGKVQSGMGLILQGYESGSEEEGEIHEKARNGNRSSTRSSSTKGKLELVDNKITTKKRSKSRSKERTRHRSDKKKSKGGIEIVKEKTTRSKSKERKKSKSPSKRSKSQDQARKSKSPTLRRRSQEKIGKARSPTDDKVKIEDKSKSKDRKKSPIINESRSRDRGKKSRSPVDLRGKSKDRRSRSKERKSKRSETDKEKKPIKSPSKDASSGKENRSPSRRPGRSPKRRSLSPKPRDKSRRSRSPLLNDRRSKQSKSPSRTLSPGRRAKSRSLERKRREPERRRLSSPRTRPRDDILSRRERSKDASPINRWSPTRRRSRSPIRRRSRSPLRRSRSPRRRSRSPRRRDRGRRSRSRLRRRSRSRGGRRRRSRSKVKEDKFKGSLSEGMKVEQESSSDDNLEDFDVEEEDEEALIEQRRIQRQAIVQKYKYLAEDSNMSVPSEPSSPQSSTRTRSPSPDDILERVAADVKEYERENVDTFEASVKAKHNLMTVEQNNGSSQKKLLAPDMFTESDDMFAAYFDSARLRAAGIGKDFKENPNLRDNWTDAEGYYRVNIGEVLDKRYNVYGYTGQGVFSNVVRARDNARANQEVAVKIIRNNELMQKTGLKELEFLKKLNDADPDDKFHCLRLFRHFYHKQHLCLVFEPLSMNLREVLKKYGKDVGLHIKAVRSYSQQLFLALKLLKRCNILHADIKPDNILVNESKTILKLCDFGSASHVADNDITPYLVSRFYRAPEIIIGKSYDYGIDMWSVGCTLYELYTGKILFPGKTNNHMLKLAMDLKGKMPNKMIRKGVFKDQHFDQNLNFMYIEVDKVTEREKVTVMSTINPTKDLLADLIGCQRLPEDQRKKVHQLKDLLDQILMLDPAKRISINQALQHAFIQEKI", "test": "activity of PRP4(h) at 1.0 µM in the Eurofins Kinase panel", "conditions": "Compound concentration 1.0 uM"}, "[30]": {"molecular_target": "Rho-associated protein kinase 2 (Homo sapiens) (UniProt O75116)", "test": "activity of ROCK-II(h) at 1.0 µM in the Eurofins Kinase panel", "conditions": "Compound concentration 1.0 uM"}, "[31]": {"molecular_target": "Ribosomal protein S6 kinase alpha-6 (Homo sapiens) (UniProt Q9UK32)", "test": "activity of Rsk4(h) at 1.0 µM in the Eurofins Kinase panel", "conditions": "Compound concentration 1.0 uM"}, "[32]": {"molecular_target": "Mitogen-activated protein kinase 13 (Homo sapiens) (UniProt O15264)", "sequence (O15264 whole entry)": "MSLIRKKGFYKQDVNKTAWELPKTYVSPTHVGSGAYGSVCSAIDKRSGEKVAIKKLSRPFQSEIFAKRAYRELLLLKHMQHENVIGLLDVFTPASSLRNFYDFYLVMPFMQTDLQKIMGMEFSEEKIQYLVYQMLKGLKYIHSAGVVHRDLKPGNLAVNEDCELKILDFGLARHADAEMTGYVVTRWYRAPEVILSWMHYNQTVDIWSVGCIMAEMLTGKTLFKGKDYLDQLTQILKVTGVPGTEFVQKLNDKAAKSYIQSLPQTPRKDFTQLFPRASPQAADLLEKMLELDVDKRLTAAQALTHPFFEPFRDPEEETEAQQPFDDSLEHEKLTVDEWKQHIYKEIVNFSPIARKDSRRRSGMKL", "test": "activity of SAPK4(h) at 1.0 µM in the Eurofins Kinase panel", "conditions": "Compound concentration 1.0 uM"}, "[33]": {"molecular_target": "Serine/threonine-protein kinase Sgk2 (Homo sapiens) (UniProt Q9HBY8)", "test": "activity of SGK2(h) at 1.0 µM in the Eurofins Kinase panel", "conditions": "Compound concentration 1.0 uM"}, "[34]": {"molecular_target": "Tyrosine-protein kinase Srms (Homo sapiens) (UniProt Q9H3Y6)", "test": "activity of SRMS(h) at 1.0 µM in the Eurofins Kinase panel", "conditions": "Compound concentration 1.0 uM"}, "[35]": {"molecular_target": "Serine/threonine-protein kinase tousled-like 1 (Homo sapiens) (UniProt Q9UKI8)", "test": "activity of TLK1(h) at 1.0 µM in the Eurofins Kinase panel", "conditions": "Compound concentration 1.0 uM"}, "[36]": {"molecular_target": "BDNF/NT-3 growth factors receptor (Homo sapiens) (UniProt Q16620)", "sequence (Q16620 32-822 limits assumed)": "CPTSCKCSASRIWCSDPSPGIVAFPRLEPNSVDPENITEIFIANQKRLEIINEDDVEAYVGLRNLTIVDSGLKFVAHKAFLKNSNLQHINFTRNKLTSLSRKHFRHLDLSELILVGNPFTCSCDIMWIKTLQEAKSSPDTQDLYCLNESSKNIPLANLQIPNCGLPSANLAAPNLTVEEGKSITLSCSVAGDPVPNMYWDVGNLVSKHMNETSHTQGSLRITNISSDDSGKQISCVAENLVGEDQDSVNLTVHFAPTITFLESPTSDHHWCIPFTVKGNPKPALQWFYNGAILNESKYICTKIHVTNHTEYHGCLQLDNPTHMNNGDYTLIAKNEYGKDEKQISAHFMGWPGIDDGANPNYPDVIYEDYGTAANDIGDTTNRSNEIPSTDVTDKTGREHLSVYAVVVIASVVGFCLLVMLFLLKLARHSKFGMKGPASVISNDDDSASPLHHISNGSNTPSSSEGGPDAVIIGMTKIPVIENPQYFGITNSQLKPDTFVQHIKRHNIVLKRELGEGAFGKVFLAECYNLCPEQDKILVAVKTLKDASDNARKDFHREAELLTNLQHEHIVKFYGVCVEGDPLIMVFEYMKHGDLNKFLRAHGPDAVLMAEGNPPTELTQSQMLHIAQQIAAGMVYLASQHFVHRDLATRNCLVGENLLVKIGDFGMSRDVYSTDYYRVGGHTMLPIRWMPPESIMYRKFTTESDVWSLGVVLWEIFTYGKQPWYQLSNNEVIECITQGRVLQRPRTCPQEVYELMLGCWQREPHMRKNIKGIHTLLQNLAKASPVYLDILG", "test": "activity of TrkB(h) at 1.0 µM in the Eurofins Kinase panel", "conditions": "Compound concentration 1.0 uM"}, "[37]": {"molecular_target": "Tyrosine-protein kinase TXK (Homo sapiens) (UniProt P42681)", "test": "activity of Txk(h) at 1.0 µM in the Eurofins Kinase panel", "conditions": "Compound concentration 1.0 uM"}, "[38]": {"molecular_target": "Serine/threonine-protein kinase ULK2 (Homo sapiens) (UniProt Q8IYT8)", "test": "activity of ULK2(h) at 1.0 µM in the Eurofins Kinase panel", "conditions": "Compound concentration 1.0 uM"}}}
{"smiles": "Cc1cc2c(-c3ccc(NC(=O)[C@H](N)CC(C)(C)C)cc3C)ccnc2[nH]1", "values": [{"measurement": "IC50", "setting": "Aurora kinase A", "value": "> 10 µM (not active)"}, {"measurement": "IC50", "setting": "[1]", "value": "> 10 µM (not active)"}, {"measurement": "activity", "setting": "[2]", "value": 100, "unit": "%"}, {"measurement": "activity", "setting": "[3]", "value": 110, "unit": "%"}, {"measurement": "activity", "setting": "[4]", "value": 102, "unit": "%"}, {"measurement": "activity", "setting": "[5]", "value": 104, "unit": "%"}, {"measurement": "activity", "setting": "[6]", "value": 95, "unit": "%"}, {"measurement": "activity", "setting": "[7]", "value": 96, "unit": "%"}, {"measurement": "activity", "setting": "[8]", "value": 89, "unit": "%"}, {"measurement": "activity", "setting": "[9]", "value": 96, "unit": "%"}, {"measurement": "activity", "setting": "[10]", "value": 107, "unit": "%"}, {"measurement": "activity", "setting": "[11]", "value": 100, "unit": "%"}, {"measurement": "activity", "setting": "[12]", "value": 86, "unit": "%"}, {"measurement": "activity", "setting": "[13]", "value": 114, "unit": "%"}, {"measurement": "activity", "setting": "[14]", "value": 81, "unit": "%"}, {"measurement": "activity", "setting": "[15]", "value": 97, "unit": "%"}, {"measurement": "activity", "setting": "[16]", "value": 73, "unit": "%"}, {"measurement": "activity", "setting": "[17]", "value": 90, "unit": "%"}, {"measurement": "activity", "setting": "[18]", "value": 76, "unit": "%"}, {"measurement": "activity", "setting": "[19]", "value": 106, "unit": "%"}, {"measurement": "activity", "setting": "[20]", "value": 76, "unit": "%"}, {"measurement": "activity", "setting": "[21]", "value": 93, "unit": "%"}, {"measurement": "activity", "setting": "[22]", "value": 89, "unit": "%"}, {"measurement": "activity", "setting": "[23]", "value": 88, "unit": "%"}, {"measurement": "activity", "setting": "[24]", "value": 87, "unit": "%"}, {"measurement": "activity", "setting": "[25]", "value": 96, "unit": "%"}, {"measurement": "activity", "setting": "[26]", "value": 102, "unit": "%"}, {"measurement": "activity", "setting": "[27]", "value": 109, "unit": "%"}, {"measurement": "activity", "setting": "[28]", "value": 118, "unit": "%"}, {"measurement": "activity", "setting": "[29]", "value": 100, "unit": "%"}, {"measurement": "activity", "setting": "[30]", "value": 96, "unit": "%"}, {"measurement": "activity", "setting": "[31]", "value": 101, "unit": "%"}, {"measurement": "activity", "setting": "[32]", "value": 94, "unit": "%"}, {"measurement": "activity", "setting": "[33]", "value": 82, "unit": "%"}, {"measurement": "activity", "setting": "[34]", "value": 86, "unit": "%"}, {"measurement": "activity", "setting": "[35]", "value": 82, "unit": "%"}, {"measurement": "activity", "setting": "[36]", "value": 84, "unit": "%"}, {"measurement": "activity", "setting": "[37]", "value": 110, "unit": "%"}, {"measurement": "activity", "setting": "[38]", "value": 98, "unit": "%"}]}
